Results published in ChEMBL document CHEMBL4725261, “Design, synthesis and evaluation of carbamate-linked uridyl-based inhibitors of human ST6Gal I” (Bioorg Med Chem, 2020).

Legend:
[1] = target: T1, Beta-galactoside alpha-2,6-sialyltransferase 1 (Homo sapiens) (UniProt P15907); assay: Inhibition of recombinant human N-terminal 6His-tagged ST6Gal-1 (Glu44 to Cys406 residues) assessed as CMP production at 10 uM using CMP-Neu5Ac as donar substrate and LacNAc as acceptor by CMP-Glo luminescence microplate reader assay relative to control
T1 sequence (whole entry): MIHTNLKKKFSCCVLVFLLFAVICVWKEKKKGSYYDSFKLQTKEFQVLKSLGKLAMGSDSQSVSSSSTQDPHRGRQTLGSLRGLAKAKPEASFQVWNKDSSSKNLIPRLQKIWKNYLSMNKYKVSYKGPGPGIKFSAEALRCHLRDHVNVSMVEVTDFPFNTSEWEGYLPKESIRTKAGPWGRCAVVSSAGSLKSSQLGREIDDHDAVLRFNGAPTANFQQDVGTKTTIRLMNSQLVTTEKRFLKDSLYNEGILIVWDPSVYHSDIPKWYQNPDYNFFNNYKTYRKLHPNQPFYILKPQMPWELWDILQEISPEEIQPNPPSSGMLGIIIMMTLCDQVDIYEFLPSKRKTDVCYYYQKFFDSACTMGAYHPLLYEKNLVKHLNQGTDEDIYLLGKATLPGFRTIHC

[2] = target: T1, Beta-galactoside alpha-2,6-sialyltransferase 1 (Homo sapiens); assay: Binding affinity to recombinant human N-terminal 6His-tagged ST6Gal-1 (Glu44 to Cys406 residues) assessed as Km/Ki ratio

Compound	inhibition [1] [%]	Ratio [2]
O=C(NC[C@H]1O[C@@H](n2ccc(=O)[nH]c2=O)[C@H](O)[C@@H]1O)OC(c1cccc(Oc2ccccc2)c1)P(=O)(O)O (stereo in doubt; 28a-(l))	28.2	
O=C(NC[C@H]1O[C@@H](n2ccc(=O)[nH]c2=O)[C@H](O)[C@@H]1O)OC(c1cccc(Oc2ccccc2)c1)P(=O)(O)O (stereo in doubt; 28a-(s))	19.9	
O=C(NC[C@H]1O[C@@H](n2ccc(=O)[nH]c2=O)[C@H](O)[C@@H]1O)OC(c1ccc(F)c(Oc2ccccc2)c1)P(=O)(O)O (stereo in doubt; 28b-(l))	1.8	
O=C(NC[C@H]1O[C@@H](n2ccc(=O)[nH]c2=O)[C@H](O)[C@@H]1O)OC(c1ccc(F)c(Oc2ccccc2)c1)P(=O)(O)O (stereo in doubt; 28b-(s))	1.1	
O=C(NC[C@H]1O[C@@H](n2ccc(=O)[nH]c2=O)[C@H](O)[C@@H]1O)OC(c1ccc(F)cc1)P(=O)(O)O (stereo in doubt; 28c-(l))	58.9	32.5
O=C(NC[C@H]1O[C@@H](n2ccc(=O)[nH]c2=O)[C@H](O)[C@@H]1O)OC(c1ccc(F)cc1)P(=O)(O)O (stereo in doubt; 28c-(s))	34.6	0.1
O=C(NC[C@H]1O[C@@H](n2ccc(=O)[nH]c2=O)[C@H](O)[C@@H]1O)OC(c1cccc(F)c1)P(=O)(O)O (stereo in doubt; 28d-(l))	18	
O=C(NC[C@H]1O[C@@H](n2ccc(=O)[nH]c2=O)[C@H](O)[C@@H]1O)OC(c1cccc(F)c1)P(=O)(O)O (stereo in doubt; 28d-(s))	36.6	1.9
CCCOc1cccc(C(OC(=O)NC[C@H]2O[C@@H](n3ccc(=O)[nH]c3=O)[C@H](O)[C@@H]2O)P(=O)(O)O)c1 (stereo in doubt; 28e-(l))	30.9	1.8
CCCOc1cccc(C(OC(=O)NC[C@H]2O[C@@H](n3ccc(=O)[nH]c3=O)[C@H](O)[C@@H]2O)P(=O)(O)O)c1 (stereo in doubt; 28e-(s))	7.2	
COc1cccc(C(OC(=O)NC[C@H]2O[C@@H](n3ccc(=O)[nH]c3=O)[C@H](O)[C@@H]2O)P(=O)(O)O)c1 (stereo in doubt; 28f-(l))	23.6	
COc1cccc(C(OC(=O)NC[C@H]2O[C@@H](n3ccc(=O)[nH]c3=O)[C@H](O)[C@@H]2O)P(=O)(O)O)c1 (stereo in doubt; 28f-(s))	29.8	
COc1ccc(C(OC(=O)NC[C@H]2O[C@@H](n3ccc(=O)[nH]c3=O)[C@H](O)[C@@H]2O)P(=O)(O)O)cc1 (stereo in doubt; 28g-(l))	7.1	
COc1ccc(C(OC(=O)NC[C@H]2O[C@@H](n3ccc(=O)[nH]c3=O)[C@H](O)[C@@H]2O)P(=O)(O)O)cc1 (stereo in doubt; 28g-(s))	18.1	
COc1ccc(C(OC(=O)NC[C@H]2O[C@@H](n3ccc(=O)[nH]c3=O)[C@H](O)[C@@H]2O)P(=O)(O)O)cc1OC1CCCC1 (stereo in doubt; 28h-(l))	7.9	
COc1ccc(C(OC(=O)NC[C@H]2O[C@@H](n3ccc(=O)[nH]c3=O)[C@H](O)[C@@H]2O)P(=O)(O)O)cc1OC1CCCC1 (stereo in doubt; 28h-(s))	12.7	
O=C(NC[C@H]1O[C@@H](n2ccc(=O)[nH]c2=O)[C@H](O)[C@@H]1O)OC(c1ccc(OC2CCCC2)cc1)P(=O)(O)O (stereo in doubt; 28i-(l))	78	3.2
O=C(NC[C@H]1O[C@@H](n2ccc(=O)[nH]c2=O)[C@H](O)[C@@H]1O)OC(c1ccc(OC2CCCC2)cc1)P(=O)(O)O (stereo in doubt; 28i-(s))	19	0.7
O=C(NC[C@H]1O[C@@H](n2ccc(=O)[nH]c2=O)[C@H](O)[C@@H]1O)OC(c1ccccc1)P(=O)(O)O (stereo in doubt; 28j-(l))	15.2	
O=C(NC[C@H]1O[C@@H](n2ccc(=O)[nH]c2=O)[C@H](O)[C@@H]1O)OC(c1ccccc1)P(=O)(O)O (stereo in doubt; 28j-(s))	7.1	
O=C(NC[C@H]1O[C@@H](n2ccc(=O)[nH]c2=O)[C@H](O)[C@@H]1O)OC(c1cc2ccccc2s1)P(=O)(O)O (stereo in doubt; 28k-(l))	13.2	
O=C(NC[C@H]1O[C@@H](n2ccc(=O)[nH]c2=O)[C@H](O)[C@@H]1O)OC(c1cc2ccccc2s1)P(=O)(O)O (stereo in doubt; 28k-(s))	66.4	4.4
O=C(NC[C@H]1O[C@@H](n2ccc(=O)[nH]c2=O)[C@H](O)[C@@H]1O)OC(c1csc2ccccc12)P(=O)(O)O (stereo in doubt; 28l-(l))	6.9	
O=C(NC[C@H]1O[C@@H](n2ccc(=O)[nH]c2=O)[C@H](O)[C@@H]1O)OC(c1csc2ccccc12)P(=O)(O)O (stereo in doubt; 28l-(s))	5.9	
Nc1ccn([C@@H]2O[C@H](CNC(=O)OC(c3cccc(Oc4ccccc4)c3)P(=O)(O)O)[C@@H](O)[C@H]2O)c(=O)n1 (stereo in doubt; 30-(l))	6.3	
Nc1ccn([C@@H]2O[C@H](CNC(=O)OC(c3cccc(Oc4ccccc4)c3)P(=O)(O)O)[C@@H](O)[C@H]2O)c(=O)n1 (stereo in doubt; 30-(s))	2.2	
